Measured values published in PMC5458547, “Discovery of first-in-class reversible dual small molecule inhibitors against G9a and DNMTs in hematological malignancies” (Nature Communications, 2017).
Read-outs that look alike come from different tables or passages of the source.

Key:
OCI-AML-2 = experiment: Cell proliferation assay (MTS); format: cell-based, human; conditions: Homo sapiens, OCI-AML2; AML, 48 h; read-out: GI50
SK-MEL-28 = experiment: Cell proliferation assay (MTS); format: cell-based; conditions: Homo sapiens, Melanoma
BRD4(BD1+BD2) = target: T1, BRD4(BD1+BD2) (Homo sapiens, UniProt O60885); experiment: Epigenetics selectivity panel (BPS Bioscience); format: binding
T1 construct: BRD2(BD1+BD2), BRD4(BD1+BD2), BRDT(BD1); purchased BPS Bioscience (contract panel)

A375 = experiment: Cell proliferation assay (MTS); format: cell-based; conditions: Homo sapiens, A-375; Melanoma
PAMPA permeability = format: in vitro ADME; conditions: pH 7.4
SU8686 = experiment: Cell proliferation assay (MTS); format: cell-based; conditions: Homo sapiens, SU.86.86; Pancreas
BRD2(BD1+BD2) = target: T2, BRD2(BD1+BD2) (Homo sapiens, UniProt P25440); experiment: Epigenetics selectivity panel (BPS Bioscience); format: binding
T2 construct: purchased DiscoverX KINOMEscan (kinases); BPS Bioscience (epigenetic targets)

DNMT3A = target: T3, DNMT3A (Homo sapiens, UniProt Q9Y6K1); experiment: Epigenetics selectivity panel (BPS Bioscience); format: biochemical
T3 construct: purchased BPS Bioscience (contract panel)

LSD1 = target: T4, LSD1 (Homo sapiens, UniProt O60341); experiment: Epigenetics selectivity panel (BPS Bioscience); format: biochemical
T4 construct: purchased DiscoverX KINOMEscan (kinases); BPS Bioscience (epigenetic targets)

JMJD2A = target: T5, JMJD2A (Homo sapiens, UniProt O75164); experiment: Epigenetics selectivity panel (BPS Bioscience); format: biochemical
T5 construct: purchased DiscoverX KINOMEscan (kinases); BPS Bioscience (epigenetic targets)

SUV39H1 = target: T6, SUV39H1 (Homo sapiens, UniProt O43463); experiment: Epigenetics selectivity panel (BPS Bioscience); format: biochemical
T6 construct: purchased DiscoverX KINOMEscan (kinases); BPS Bioscience (epigenetic targets)
T6 sequence (O43463 whole entry): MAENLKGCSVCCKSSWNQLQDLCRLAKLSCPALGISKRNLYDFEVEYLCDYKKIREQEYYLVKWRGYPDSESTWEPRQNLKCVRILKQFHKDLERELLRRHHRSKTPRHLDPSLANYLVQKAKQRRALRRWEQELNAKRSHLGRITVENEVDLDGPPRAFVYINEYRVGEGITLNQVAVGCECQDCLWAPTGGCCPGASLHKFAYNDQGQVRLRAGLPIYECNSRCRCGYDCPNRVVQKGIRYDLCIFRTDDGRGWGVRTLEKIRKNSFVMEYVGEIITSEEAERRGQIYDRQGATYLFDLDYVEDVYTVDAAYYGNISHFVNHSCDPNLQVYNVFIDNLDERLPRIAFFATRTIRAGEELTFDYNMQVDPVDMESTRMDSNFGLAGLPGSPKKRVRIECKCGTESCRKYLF

[1] = Plasma protein binding (equilibrium dialysis); format: in vitro ADME; conditions: pH 7.4
Description: This study was conducted by Equilibrium Dialysis at Wuxi (http://www.wuxi.com/). HT-Dialysis plate (Model HTD 96 b, Cat# 1006) and the dialysis membrane (molecular weight cut off 12-14 kDa, Cat# 1101) were purchased from HT Dialysis LLC (Gales Ferry, CT). Human plasma and CD-1 mouse plasma from Bioreclamation were thawed prior to experiment and the pH was adjusted at 7.4. Concentrations of test compounds in starting solution (before dialysis), plasma side of the membrane and buffer side of the membrane were quantified by LC-MS/MS (Shimadzu LC 20-AD - API 4000) methodologies, using peak area ratio of analyte/internal standard. The fraction of unbound, bound and recovery were calculated.
Results are the average of three replicates. […]
The pH was adjusted to 7.40±0.05 using either 1 M sodium hydroxide or 1 M hydrochloric acid. Test compounds were diluted to 0.2 mM in DMSO and further diluted prior to testing to 10 µM in PBS, pH 7.4 (final 5% DMSO). The assay was performed using a 96-well multiscreen-IP PAMPA plate (Millipore, Cat. # MAIPN4510), whose PVDF membrane was pre-coated with 5 µL of 1% lecithin/dodecane mixture. 150 µL of PBS solution containing the test compounds were added to the donor chamber. Blank PBS (300 µL) was also added to the PTFE acceptor plate, and the donor and acceptor plates were assembled and incubated for 4 h at room temperature with shaking at 150 rpm. […]

SK-MEL-147 = experiment: Cell proliferation assay (MTS); format: cell-based; conditions: Homo sapiens, Melanoma
PRMT1 = target: T7, PRMT1 (Homo sapiens, UniProt Q99873); experiment: Epigenetics selectivity panel (BPS Bioscience); format: biochemical
T7 construct: purchased BPS Bioscience (contract panel)
T7 sequence (Q99873 whole entry): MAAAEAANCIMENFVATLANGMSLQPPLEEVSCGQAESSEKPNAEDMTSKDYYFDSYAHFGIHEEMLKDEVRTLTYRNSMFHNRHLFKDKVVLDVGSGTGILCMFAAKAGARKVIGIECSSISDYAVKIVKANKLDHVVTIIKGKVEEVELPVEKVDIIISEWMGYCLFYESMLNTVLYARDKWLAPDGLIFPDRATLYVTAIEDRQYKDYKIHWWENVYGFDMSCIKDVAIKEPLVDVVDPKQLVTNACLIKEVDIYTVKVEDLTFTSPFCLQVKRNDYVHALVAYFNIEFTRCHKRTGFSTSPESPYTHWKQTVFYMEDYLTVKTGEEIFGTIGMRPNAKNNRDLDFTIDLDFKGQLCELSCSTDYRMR

MV4-11 = experiment: Cell proliferation assay (MTS); format: cell-based; conditions: Homo sapiens, MV4-11; AML, 48 h; read-out: GI50
LAL-CUN-2 = experiment: Cell proliferation assay (MTS); format: cell-based; conditions: Homo sapiens; ALL, 48 h; read-out: GI50
[2] = Cytotoxicity in THLE-2 cells (ATP); format: cell-based; conditions: human; THLE-2, 72 h exposure; read-out: LC50
[3] = Liver microsomal stability; format: in vitro ADME; conditions: mouse, mouse liver microsomes; read-out: Liver Microsomal Stability. Estimation T1/2
[4] = Liver microsomal stability; format: in vitro ADME; conditions: human, human liver microsomes; read-out: Liver Microsomal Stability. Estimation T1/2
CREBBP = target: T8, CREBBP (Homo sapiens, UniProt Q92793); experiment: Epigenetics selectivity panel (BPS Bioscience); format: binding
T8 construct: purchased DiscoverX KINOMEscan (kinases); BPS Bioscience (epigenetic targets)
T8 sequence (Q92793 whole entry): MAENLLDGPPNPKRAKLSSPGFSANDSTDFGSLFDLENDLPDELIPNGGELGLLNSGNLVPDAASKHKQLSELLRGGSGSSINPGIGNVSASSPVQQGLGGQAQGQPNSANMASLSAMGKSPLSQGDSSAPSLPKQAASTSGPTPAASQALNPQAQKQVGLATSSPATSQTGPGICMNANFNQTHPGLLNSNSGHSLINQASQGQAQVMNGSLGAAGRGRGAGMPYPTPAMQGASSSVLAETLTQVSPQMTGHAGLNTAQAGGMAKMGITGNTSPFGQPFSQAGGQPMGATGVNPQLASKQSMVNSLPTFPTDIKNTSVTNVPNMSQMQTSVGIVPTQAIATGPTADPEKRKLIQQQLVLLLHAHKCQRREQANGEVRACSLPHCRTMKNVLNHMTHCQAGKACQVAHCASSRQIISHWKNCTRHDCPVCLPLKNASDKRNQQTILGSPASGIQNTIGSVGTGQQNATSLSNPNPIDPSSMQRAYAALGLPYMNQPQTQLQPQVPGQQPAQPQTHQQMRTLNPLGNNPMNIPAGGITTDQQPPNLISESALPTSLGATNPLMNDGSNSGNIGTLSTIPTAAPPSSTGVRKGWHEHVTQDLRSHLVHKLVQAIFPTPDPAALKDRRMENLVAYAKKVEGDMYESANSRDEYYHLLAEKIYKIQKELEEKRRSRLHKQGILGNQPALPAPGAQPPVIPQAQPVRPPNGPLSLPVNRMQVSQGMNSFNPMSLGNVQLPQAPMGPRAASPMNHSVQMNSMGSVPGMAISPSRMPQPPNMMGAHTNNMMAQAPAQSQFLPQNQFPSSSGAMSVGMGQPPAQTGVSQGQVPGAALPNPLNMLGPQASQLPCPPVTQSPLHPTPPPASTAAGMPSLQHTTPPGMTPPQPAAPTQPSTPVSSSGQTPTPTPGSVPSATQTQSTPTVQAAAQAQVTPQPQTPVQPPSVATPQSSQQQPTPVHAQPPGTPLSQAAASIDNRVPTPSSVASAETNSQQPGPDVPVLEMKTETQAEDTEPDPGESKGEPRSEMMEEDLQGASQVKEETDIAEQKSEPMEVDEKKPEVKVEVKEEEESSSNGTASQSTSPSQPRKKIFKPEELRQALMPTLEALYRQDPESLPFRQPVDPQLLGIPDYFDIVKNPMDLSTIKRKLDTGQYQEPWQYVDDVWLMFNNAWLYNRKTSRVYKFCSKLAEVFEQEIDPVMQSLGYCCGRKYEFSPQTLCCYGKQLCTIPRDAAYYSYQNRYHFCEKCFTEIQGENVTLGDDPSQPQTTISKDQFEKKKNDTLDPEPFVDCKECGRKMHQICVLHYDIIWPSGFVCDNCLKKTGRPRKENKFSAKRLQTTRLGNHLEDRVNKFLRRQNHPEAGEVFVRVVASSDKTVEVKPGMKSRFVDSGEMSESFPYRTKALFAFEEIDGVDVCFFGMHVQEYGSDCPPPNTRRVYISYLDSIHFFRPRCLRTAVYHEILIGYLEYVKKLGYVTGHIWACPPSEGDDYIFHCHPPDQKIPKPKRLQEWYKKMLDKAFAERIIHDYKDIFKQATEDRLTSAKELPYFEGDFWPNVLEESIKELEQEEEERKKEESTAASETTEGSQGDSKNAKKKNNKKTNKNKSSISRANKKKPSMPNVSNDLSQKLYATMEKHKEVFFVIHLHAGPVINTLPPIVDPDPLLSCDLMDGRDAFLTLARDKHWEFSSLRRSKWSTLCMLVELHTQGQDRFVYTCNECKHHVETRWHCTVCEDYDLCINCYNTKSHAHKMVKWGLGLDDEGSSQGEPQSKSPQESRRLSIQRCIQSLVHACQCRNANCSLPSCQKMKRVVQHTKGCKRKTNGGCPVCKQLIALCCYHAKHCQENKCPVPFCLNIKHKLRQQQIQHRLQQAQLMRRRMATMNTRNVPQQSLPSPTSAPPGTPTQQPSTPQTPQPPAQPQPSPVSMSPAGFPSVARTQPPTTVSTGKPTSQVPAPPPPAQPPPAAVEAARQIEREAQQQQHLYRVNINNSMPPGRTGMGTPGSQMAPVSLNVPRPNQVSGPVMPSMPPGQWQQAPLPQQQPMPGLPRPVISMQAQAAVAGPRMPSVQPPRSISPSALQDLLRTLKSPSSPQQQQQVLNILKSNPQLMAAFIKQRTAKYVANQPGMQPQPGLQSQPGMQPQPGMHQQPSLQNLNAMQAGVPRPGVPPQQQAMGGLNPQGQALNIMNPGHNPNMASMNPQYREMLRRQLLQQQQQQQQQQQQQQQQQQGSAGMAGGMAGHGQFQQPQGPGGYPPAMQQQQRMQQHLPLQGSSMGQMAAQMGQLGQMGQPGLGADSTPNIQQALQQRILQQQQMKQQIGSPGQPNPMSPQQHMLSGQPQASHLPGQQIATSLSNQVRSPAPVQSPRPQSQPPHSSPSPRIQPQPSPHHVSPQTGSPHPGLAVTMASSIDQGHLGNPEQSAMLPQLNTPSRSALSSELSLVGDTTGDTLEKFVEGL

Jarid1C = target: T9, Jarid1C (Homo sapiens, UniProt P41229); experiment: Epigenetics selectivity panel (BPS Bioscience); format: biochemical
T9 construct: purchased DiscoverX KINOMEscan (kinases); BPS Bioscience (epigenetic targets)
T9 sequence (P41229 whole entry): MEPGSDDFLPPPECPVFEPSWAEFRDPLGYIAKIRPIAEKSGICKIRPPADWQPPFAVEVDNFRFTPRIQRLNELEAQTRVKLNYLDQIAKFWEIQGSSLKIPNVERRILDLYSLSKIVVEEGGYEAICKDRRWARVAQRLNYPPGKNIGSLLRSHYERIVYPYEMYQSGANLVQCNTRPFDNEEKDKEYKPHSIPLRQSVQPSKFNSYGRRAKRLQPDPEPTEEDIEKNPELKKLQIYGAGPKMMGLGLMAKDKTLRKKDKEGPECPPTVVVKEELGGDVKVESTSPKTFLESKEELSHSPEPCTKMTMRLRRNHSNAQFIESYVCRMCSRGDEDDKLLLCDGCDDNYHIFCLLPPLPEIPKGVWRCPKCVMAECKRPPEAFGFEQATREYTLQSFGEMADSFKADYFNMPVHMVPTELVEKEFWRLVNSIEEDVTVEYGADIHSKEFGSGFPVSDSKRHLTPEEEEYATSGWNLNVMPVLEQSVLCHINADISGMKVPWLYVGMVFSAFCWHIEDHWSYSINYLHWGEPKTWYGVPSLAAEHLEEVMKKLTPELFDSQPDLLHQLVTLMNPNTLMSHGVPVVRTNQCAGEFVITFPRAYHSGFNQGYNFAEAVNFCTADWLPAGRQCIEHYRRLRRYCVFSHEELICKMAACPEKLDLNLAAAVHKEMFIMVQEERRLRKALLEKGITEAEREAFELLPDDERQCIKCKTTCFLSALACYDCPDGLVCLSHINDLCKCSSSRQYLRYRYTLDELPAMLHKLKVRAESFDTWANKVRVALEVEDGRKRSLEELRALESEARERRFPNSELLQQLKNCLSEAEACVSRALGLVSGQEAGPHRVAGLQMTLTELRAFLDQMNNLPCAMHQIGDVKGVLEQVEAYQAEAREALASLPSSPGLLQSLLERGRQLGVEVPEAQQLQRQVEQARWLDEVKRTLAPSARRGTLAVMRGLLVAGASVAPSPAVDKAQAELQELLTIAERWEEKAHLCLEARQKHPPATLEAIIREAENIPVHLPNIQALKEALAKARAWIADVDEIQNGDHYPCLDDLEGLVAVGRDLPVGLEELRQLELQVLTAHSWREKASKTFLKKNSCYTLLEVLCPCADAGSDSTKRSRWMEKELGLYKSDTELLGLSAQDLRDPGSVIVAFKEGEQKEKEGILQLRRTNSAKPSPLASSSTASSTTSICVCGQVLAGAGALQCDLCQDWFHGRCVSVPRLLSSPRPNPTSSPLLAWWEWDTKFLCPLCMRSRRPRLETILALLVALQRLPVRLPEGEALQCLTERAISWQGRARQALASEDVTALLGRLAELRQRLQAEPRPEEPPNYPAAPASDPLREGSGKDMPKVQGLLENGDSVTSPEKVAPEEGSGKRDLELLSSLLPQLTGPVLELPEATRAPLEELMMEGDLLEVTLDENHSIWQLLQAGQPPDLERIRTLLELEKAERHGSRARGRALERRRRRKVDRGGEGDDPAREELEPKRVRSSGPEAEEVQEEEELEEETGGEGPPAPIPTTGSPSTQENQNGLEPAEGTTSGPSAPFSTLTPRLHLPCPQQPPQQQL

SK-MEL-103 = experiment: Cell proliferation assay (MTS); format: cell-based; conditions: Homo sapiens, Melanoma
RPMI 8226 = experiment: Cell proliferation assay (MTS); format: cell-based; conditions: Homo sapiens, MM
Maximum tolerated dose = conditions: mouse, in vivo, iv
H23 = experiment: Cell proliferation assay (MTS); format: cell-based; conditions: Homo sapiens, NCI-H23; NSCLC
LOVO = experiment: Cell proliferation assay (MTS); format: cell-based; conditions: Homo sapiens, Colorectal
HEL = experiment: Cell proliferation assay (MTS); format: cell-based; conditions: Homo sapiens, AML, 48 h
MLL-WARD = target: T10, MLL-WARD (Homo sapiens, UniProt Q03164); experiment: Epigenetics selectivity panel (BPS Bioscience); format: biochemical
T10 construct: purchased DiscoverX KINOMEscan (kinases); BPS Bioscience (epigenetic targets)

UACC-62 = experiment: Cell proliferation assay (MTS); format: cell-based; conditions: Homo sapiens, Melanoma
BRDT(BD1) = target: T11, BRDT(BD1) (Homo sapiens, UniProt Q58F21); experiment: Epigenetics selectivity panel (BPS Bioscience); format: binding
T11 construct: purchased DiscoverX KINOMEscan (kinases); BPS Bioscience (epigenetic targets)

DU145 = experiment: Cell proliferation assay (MTS); format: cell-based; conditions: Homo sapiens, DU-145; Prostate
SETD2 = target: T12, SETD2 (Homo sapiens, UniProt Q9BYW2); experiment: Epigenetics selectivity panel (BPS Bioscience); format: biochemical
T12 construct: purchased DiscoverX KINOMEscan (kinases); BPS Bioscience (epigenetic targets)

SUV39H2 = target: T13, SUV39H2 (Homo sapiens, UniProt Q9H5I1); experiment: Epigenetics selectivity panel (BPS Bioscience); format: biochemical
T13 construct: purchased DiscoverX KINOMEscan (kinases); BPS Bioscience (epigenetic targets)

A549 = experiment: Cell proliferation assay (MTS); format: cell-based; conditions: Homo sapiens, NSCLC
A498 = experiment: Cell proliferation assay (MTS); format: cell-based; conditions: Homo sapiens, Renal

Structure (SMILES): COc1cc2c(NCC3CCN(C)CC3)cc(-c3ccc(C)o3)nc2cc1OCCCN1CCCC1 [CM-579, 6-methoxy-2-(5-methyl-2-furyl)-N-[(1-methyl-4-piperidyl)methyl]-7-(3-pyrrolidin-1-ylpropoxy)quinolin-4-amine]
- GI50 (OCI-AML-2): 490 nM
- GI50 (SK-MEL-28): 1390 nM
- inhibition at 10 µM (BRD4(BD1+BD2)): 0%
- GI50 (A375): 48 nM
- PAMPA (Pe) (PAMPA permeability): 0.01 10-6 in nm/s
- GI50 (SU8686): 621 nM
- inhibition at 10 µM (BRD2(BD1+BD2)): 0%
- IC50 (DNMT3A): 92 nM
- inhibition at 10 µM (LSD1): 24%
- inhibition at 10 µM (JMJD2A): 30%
- inhibition at 10 µM (SUV39H1): 2%
- fraction unbound ([1]; CD-1, mouse): 0.046
- fraction unbound ([1]; human): 0.147
- GI50 (SK-MEL-147): 32 nM
- inhibition at 10 µM (PRMT1): 43%
- GI50 (MV4-11): 385 nM
- GI50 (LAL-CUN-2): 365 nM
- CC50 at 72 h [2]: 1300 nM
- half-life at 1 µM [3]: 10.7 min
- half-life at 1 µM [4]: 88.8 min
- inhibition at 10 µM (CREBBP): 0%
- inhibition at 10 µM (Jarid1C): 13%
- GI50 (SK-MEL-103): 29 nM
- GI50 (RPMI 8226): 5420 nM
- MTD (Maximum tolerated dose): ≤ 1 mg/kg
- GI50 (H23): 1140 nM
- GI50 (LOVO): 297 nM
- GI50 (HEL): > 10000 nM
- inhibition at 10 µM (MLL-WARD): 2%
- GI50 (UACC-62): 150 nM
- inhibition at 10 µM (BRDT(BD1)): 0%
- GI50 (DU145): 223 nM
- inhibition at 10 µM (SETD2): 0%
- inhibition at 10 µM (SUV39H2): 0%
- GI50 (A549): 122 nM
- GI50 (A498): 441 nM

Structure (SMILES): COc1cc2c(NC3CCN(C)CC3)cc(-c3ccc(C)o3)nc2cc1OCCCN1CCCC1 [CM-272, 6-methoxy-2-(5-methyl-2-furyl)-N-(1-methyl-4-piperidyl)-7-(3-pyrrolidin-1-ylpropoxy)quinolin-4-amine]
- GI50 (OCI-AML-2): 256 nM
- GI50 (SK-MEL-28): 874 nM
- inhibition at 10 µM (BRD4(BD1+BD2)): 56%
- IC50 (BRD4(BD1+BD2); BPS): 1500 nM
- GI50 (A375): 357 nM
- PAMPA (Pe) (PAMPA permeability): 0.16 10-6 in nm/s
- GI50 (SU8686): 1400 nM
- inhibition at 10 µM (BRD2(BD1+BD2)): 0%
- IC50 (DNMT3A): 85 nM
- inhibition at 10 µM (LSD1): 0%
- inhibition at 10 µM (JMJD2A): 1%
- inhibition at 10 µM (SUV39H1): 1%
- fraction unbound ([1]; CD-1, mouse): 0.25
- fraction unbound ([1]; human): 0.244
- GI50 (SK-MEL-147): 422 nM
- inhibition at 10 µM (PRMT1): 73%
- IC50 (PRMT1; BPS): 4000 nM
- GI50 (MV4-11): 269 nM
- GI50 (LAL-CUN-2): 664 nM
- CC50 at 72 h [2]: 1780 nM
- half-life at 1 µM [3]: 35.2 min
- half-life at 1 µM [4]: > 145 min
- inhibition at 10 µM (CREBBP): 5%
- inhibition at 10 µM (Jarid1C): 1%
- GI50 (SK-MEL-103): 281 nM
- GI50 (RPMI 8226): 2000 nM
- MTD (Maximum tolerated dose): 2.5 mg/kg
- GI50 (H23): 2490 nM
- GI50 (LOVO): 1220 nM
- GI50 (HEL): > 10000 nM
- inhibition at 10 µM (MLL-WARD): 4%
- GI50 (UACC-62): 780 nM
- inhibition at 10 µM (BRDT(BD1)): 8%
- GI50 (DU145): 762 nM
- inhibition at 10 µM (SETD2): 8%
- inhibition at 10 µM (SUV39H2): 4%
- GI50 (A549): 937 nM
- GI50 (A498): 4760 nM
